Assay results: PubChem BioAssay (NCI)
Values joined by “and” are separate entries in the source; they are usually repeats but may differ in a detail not shown here. Equal values may be shown once.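 Dose response: 5 concentrations. Exposure: 48 h. Format: 96-well plates. Endpoint: linear interpolation; highest concentration if not reached. The concentration for 50% growth inhibition is given as GI50. TGI: total growth inhibition.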

Legend:
Test in all cases: NCI-60 cell line screen, 48 h
[1] = tested on: LOX IMVI melanoma
[2] = tested on: BT-549 breast
[3] = tested on: CAKI-1 renal
[4] = tested on: HT29 colon
[5] = tested on: ACHN renal
[6] = tested on: OVCAR-3 ovarian
[7] = tested on: UACC-257 melanoma
[8] = tested on: HOP-92 NSCLC
[9] = tested on: M14 melanoma
[10] = tested on: COLO 205 colon

Row | Structure (SMILES) | TGI [1] | TGI [2] | TGI [3] | TGI [4] [nM] | TGI [5] [nM] | TGI [6] | TGI [7] | TGI [8] | TGI [9] [nM] | TGI [10] | GI50 [1] [nM] | GI50 [2] [nM] | GI50 [3] [nM] | GI50 [4] [nM] | GI50 [5] [nM] | GI50 [8] [nM] | GI50 [9] [nM] | GI50 [10] [nM] | GI50 [7] [nM] | GI50 [6] [nM]
1 | Clc1ccc2c(NCCNc3ccnc4cc(Cl)ccc34)ccnc2c1 | 34100 nM | 36800 nM | 34800 nM | 29500 | 32700 | 28300 nM | 32300 nM | 38500 nM | 31200 | 30100 nM |  |  |  |  |  |  |  |  |  | 
2 | COc1ccc(Cl)cc1NC(=O)c1c(NC(=O)C(F)(F)C(F)(F)F)sc2c1CCCCC2 | > 100000 nM | 7230 nM | 4860 nM | > 100000 | 7110 |  |  | 947 nM | > 100000 | 2800 nM | 2620 | 2060 | 1030 | 2480 | 1760 | 263 | 2660 | 1300 |  | 
3 | COc1ccc(CCCC(=O)O)c(C)c1 | > 100000 nM | > 100000 nM | 51100 nM | > 100000 | > 100000 | 97500 nM | > 100000 nM | 90800 nM | > 100000 |  |  |  |  |  |  |  |  |  |  | 
4 | COc1cccc2c1C(=O)c1c(O)c3c(c(O)c1C2=O)C[C@@](O)(/C(C)=N/NC(=O)c1ccccc1)C[C@@H]3OC1CC(N)C(O)C(C)O1 (some centres undefined) | 709 nM | 1450 nM | 1470 nM | 6040 | 975 | 4550 nM | 3510 nM | 1110 nM | 1480 | 3200 nM |  |  |  |  |  |  |  |  |  | 
5 | COC(=O)c1cc2c3c(cc(O)c2[nH]1)N(C(=O)C1Cc2cc(OC)c(OC)c(OC)c2N1)CC3CCl (centres undefined) | 291 nM | < 10 nM |  | < 10 |  |  | < 10 nM |  |  |  | < 10 | < 10 |  | < 10 |  |  |  |  | < 10 | 
6 | Nc1nc(N)c2nc(-c3ccco3)cnc2n1 | > 100000 nM |  | > 100000 nM | > 100000 | > 100000 | > 100000 nM | > 100000 nM | > 100000 nM | > 100000 | > 100000 nM |  |  |  |  |  |  |  |  |  | 
7 | CC[C@@]1(O)C(=O)OCc2c1cc1n(c2=O)Cc2c-1nc1ccccc1c2/C=N\NC(=O)C(N)Cc1cnc[nH]1 (some centres undefined) | 3370 nM | > 100000 nM | 3210 nM | > 57300 | 1180 | > 51400 nM | > 84300 nM | > 41500 nM | 2630 | > 100000 nM |  |  |  |  |  |  |  |  |  | 
8 | COc1cc2cc(C(=O)N3CC(CCl)c4c3cc(N(C)C)c3ccccc43)[nH]c2c(OC)c1OC (centres undefined) | 1860 nM | 5910 nM | < 10 nM |  | > 100000 | 37.7 nM |  | > 53900 nM | 18.5 |  |  |  |  |  |  |  |  |  |  | 
9 | CCOC(=O)c1c(C)[nH]c(/C=C2\N=C(c3ccc[nH]3)C=C2OC)c1C | 16.8 nM | 1480 nM | 795 nM | 1190 | 1290 | 299 nM | 1460 nM | 79.2 nM |  |  | < 10 | 41 | 46.1 | < 10 | 32.1 | 32.3 |  |  | 40.2 | 15.2
10 | O=C1C=C(N2CC2)C(=O)C=C1N1CC1 | 206 nM and 386 nM | 159 nM and 1340 nM | 24.7 nM and 67.5 nM | 1400 | 303 | 967 nM and 277 nM | 339 nM and 999 nM | 576 nM and 1560 nM | 249 | 126 nM and 267 nM | 29.8 | 20.7 | 0.251 | 18.5 |  | 152 | 28.8 | 34 | 121 | 153
